Test results published in ChEMBL document CHEMBL5209575, “Membrane potential based assay for SLC1A1 using HEK-293 SLC1A1 OE cells” (2022).

Molecular target: T1, Excitatory amino acid transporter 3 (Homo sapiens, UniProt P43005)
T1 sequence (P43005 whole entry): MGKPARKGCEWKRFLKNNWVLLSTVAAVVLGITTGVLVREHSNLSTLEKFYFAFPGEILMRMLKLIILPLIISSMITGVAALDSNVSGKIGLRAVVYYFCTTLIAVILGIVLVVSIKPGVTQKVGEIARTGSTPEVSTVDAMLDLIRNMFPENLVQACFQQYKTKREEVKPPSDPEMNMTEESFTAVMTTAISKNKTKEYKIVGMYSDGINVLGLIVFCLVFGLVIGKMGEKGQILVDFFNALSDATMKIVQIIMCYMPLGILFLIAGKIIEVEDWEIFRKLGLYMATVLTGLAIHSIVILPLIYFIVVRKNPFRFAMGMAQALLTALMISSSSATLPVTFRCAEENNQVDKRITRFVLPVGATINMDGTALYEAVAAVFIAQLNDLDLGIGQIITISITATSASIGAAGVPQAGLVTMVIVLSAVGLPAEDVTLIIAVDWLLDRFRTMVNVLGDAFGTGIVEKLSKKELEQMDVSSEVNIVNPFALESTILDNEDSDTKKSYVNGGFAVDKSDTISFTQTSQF
Assay: Substrate uptake by the Excitatory Amino Acid Transporter 3 (EAAT3, SLC1A1) as assessed by the fluorescent FLIPR membrane potential dye in HEK-293 JumpIN-SLC1A1 cells (PubChem AID: 1794812)
Type: functional, cell-based, HEK293

EC50 (read-out: EC50) [µM] | Compound | EC50 (hek293)
 | N[C@@H](CCC(=O)O)C(=O)O [GLUTAMIC ACID] | Substrate: The Commpound Is Eliciting A Specific Response, But A Broader Concentration Range Is Needed To Calculate A Correct Ec50
161 | N[C@@H](CS)C(=O)O [CYSTEINE] | 
 | N[C@@H](CC(=O)O)C(=O)O [ASPARTIC ACID] | Substrate: The Commpound Is Eliciting A Specific Response, But A Broader Concentration Range Is Needed To Calculate A Correct Ec50
